Results as given in patent US20020052409A1, “Compounds and methods for treating mitochondria-associated diseases” (priority 1998, published 2002).

Experiments:
[1] = system: 1685 cells; experiment: Thapsigargin induced apoptosis (cell death, propidium iodide); assay type: cell-based, human; conditions: for Δ Cell Viability: [% Non-Viable Cells (with Thapsigargin, without Cmpd)] − [% Non-Viable Cells (with Thapsigargin, with Cmpd)], agent 100 μM; for % Non-Viable Cells with Thapsigargin and with Cmpd. / cytotoxicity at 100 µM: thapsigargin 1 μM plus agent 100 μM, 24 hours; for cytotoxicity at 100 µM: Homo sapiens, read-out: % Non-Viable Cells with Thapsigargin and with Cmpd.
Procedure: In another aspect of the apoptosis assays, the ratio of living to dead cells, or the proportion of dead cells, in a population of cells exposed to an apoptogen is determined as a measure of the ultimate consequence of apoptosis. Living cells can be distinguished from dead cells using any of a number of techniques known to those skilled in the art.
In order to determine the effect of compounds of this invention on the final endpoint of apoptosis (cell death), the following assays were carried out. […] Cells were plated (3×10^4 cells per well) on 96-well plates 48 hours prior to thapsigargin treatment. Thapsigargin (Calbiochem, La Jolla, Calif.) alone (final concentration, 1 μM), thapsigargin (1 μM) plus agent final concentration, 100 μM), agent alone (100 μM) in growth media, or growth media devoid of both thapsigargin and agent, were added to cells in four separate wells.
Twenty-four hours after thapsigargin +/− agent treatment, propidium iodide (Sigma Chemical Co., St. Louis, Mo.) was added to each well at a final concentration of 10 μg/ml per well. […] The resulting fluorescence values correspond to cells in the monolayer of a well that are non-viable.
(§1) Next, the media was aspirated, and the monolayer was fixed (killed) by adding 100 μl of 100% ethanol to each well followed by incubation at ambient temperature for 10 minutes. The fluorescense in each well was then read again. The fluorescence values resulting from the second reading correspond to the total number of cells (whether viable or non-viable at the time of the initial fluorescence reading) present in the monolayer of a well.

[2] = system: 1685 cells; experiment: Cytotoxic effects of compounds, no thapsigargin (propidium iodide); assay type: cell-based, human
Procedure: In order to determine the effect of compounds of this invention on the final endpoint of apoptosis (cell death), the following assays were carried out. The cells used were 1685 cells, “1685” being the designation of a cybrid cell line derived from SH-SY5Y and containing mitochondria from a patient having Alzheimer's disease (see U.S. Pat. No. 5,888,498, issued Mar. 30, 1999, hereby incorporated by reference). Cells were plated (3×10^4 cells per well) on 96-well plates 48 hours prior to thapsigargin treatment. Thapsigargin (Calbiochem, La Jolla, Calif.) alone (final concentration, 1 μM), thapsigargin (1 μM) plus agent final concentration, 100 μM), agent alone (100 μM) in growth media, or growth media devoid of both thapsigargin and agent, were added to cells in four separate wells.
Twenty-four hours after thapsigargin +/− agent treatment, propidium iodide (Sigma Chemical Co., St. Louis, Mo.) was added to each well at a final concentration of 10 μg/ml per well. The cells were incubated at ambient temperature for 10 minutes, after which the fluorescence (excitation max=536 nm, 544 nm used for excitation; emission max=617, readings at 612 nm) was determined for each individual well in a fmax™ fluorescence microplate reader (Molecular Devices, Sunnyvale, Calif.). The resulting fluorescence values correspond to cells in the monolayer of a well that are non-viable.
as §1
The results, presented in Table 4 below, are expressed as the percentage of non-viable cells as a proportion of the […] cells (fixed controls).
The ΔCell Viability values resulting from treating cells with agents in this class in the absence of thapsigargin (Table 4, infra) closely parallel the ΔCell Viability values that result when cells are treated with the respective agent and thapsigargin ([…]).

[3] = system: human cytoplasmic hybrid (“cybrid”) cells; experiment: Assay for mitochondrial permeability transition using DASPMI (ionomycin-induced fluorescence decay); assay type: cell-based; conditions: DASPMI-loaded cybrid cells, ionomycin induced membrane potential collapse
Text: B. Assay for Mitochondrial Permeability Transition (MPT) Using 2-,4-Dimethvlaminostyryl-N-Methvlpyridinium (DASPMI).
According to this assay, one may determine the ability of a mitochondria protecting agent of the invention to inhibit the loss of mitochondrial membrane potential that accompanies mitochondrial dysfunction. […] This loss of membrane potential or mitochondrial permeability transition (MPT) can be quantitatively measured using the mitochondria-selective fluorescent probe 2-,4-dimethylaminostyryl-N-methylpyridinium (DASPMI).
Upon introduction into cell cultures, DASPMI accumulates in mitochondria in a manner that is dependent on, and proportional to, mitochondrial membrane potential. If mitochondrial function is disrupted in such a manner as to compromise membrane potential, the fluorescent indicator compound leaks out of the membrane bounded organelle with a concomitant loss of detectable fluorescence. Fluorimetric measurement of the rate of decay of mitochondria associated DASPMI fluorescence provides a quantitative measure of loss of membrane potential, or MPT.
Culture supernatants are then removed and various concentrations of candidate mitochondria protecting agents diluted into HBSS from DMF stocks, or vehicle controls, are added at various concentrations. Mitochondria protecting agents are introduced to cells either before, or at the same time as, introduction of the cells to ionomycin (described below).
Fluorescence of each microculture in the 96-well plate is quantified immediately using a Molecular Devices fmax™ fluorimetric plate reader (Molecular Devices Corp., Sunnyvale, Calif.; excitation wavelength=485 nm; emission wavelength=590 nm) and to fluorescence is recorded. Thereafter, induction of mitochondrial membrane potential collapse is initiated by the addition of ionomycin (Calbiochem, San Diego, Calif.). Ionomycin stock solutions of various concentrations from 0.1-40 μM are prepared in warm Hank's balanced salt solution (HBSS) and diluted for addition to cells to achieve a final concentration of 0.05-20 μM, with final concentrations of 4-10 μM being preferred. Fluorescence decay of DASPMI-loaded, ionomycin induced cells is monitored as a function of time from 0-500 seconds following addition of ionomycin. The maximum negative slope (V-max) is calculated from a subset of the data using analysis software provided by the fluorimetric plate reader manufacturer. In addition, the initial and final signal intensities are determined and the effects of candidate mitochondria protecting agents on the rate of signal decay are quantified.

[4] = system: SH-SY5Y neuroblastoma cells; experiment: Ionomycin-induced apoptosis in neuroblastoma cells (membrane blebbing, light microscopy); assay type: cell-based, human; conditions: 2 mM, simultaneously with 10 μM ionomycin; 6h incubation; ionomycin alone approximately 80%, untreated <5%
Procedure: SH-SY5Y neuroblastoma cells (1×10^5 cells) were rinsed with one volume 1X PBS, and then treated with 10 μM ionomycin (Calbiochem, San Diego, Cass.) in DMEM supplemented with 10% fetal calf serum (FCS) (Gibco, Life Technologies, Grand Island, N.Y.) for 10 minutes, followed by two washes with DMEM (10% FCS). After 6h incubation at 37° C. in DMEM (10% FCS), cells were visualized by light microscopy (20X magnification). […] When cells were simultaneously treated with ionomycin and 2 mM creatine, the proportion of cells undergoing apoptosis as evidenced by membrane blebbing was reduced to approximately 10%.

[5] = system: cybrid cells (MixCon, 1685 cells); experiment: Ionomycin induced apoptosis in cybrid cells: cytochrome c release (ProteinChip/SELDI); assay type: cell-based, human; conditions: 100 μM at the same time ionomycin (10 μM) was introduced; FIGURE
Text: In another aspect of the apoptosis assays, quantification of the mitochondrial protein cytochrome c that has leaked out of mitochondria in apoptotic cells may provide an apoptosis indicator that can be readily determined (Liu et al., Cell 86:147-157, 1996). Such quantification of cytochrome c may be performed spectrophotometrically, immunochemically or by other well established methods for detecting the presence of a specific protein. Release of cytochrome c from mitochondria in cells challenged with apoptotic stimuli (e.g., ionomycin, a well known calcium ionophore) can be followed by a variety of immunological methods. Matrix-assisted laser desorption ionization time of flight mass (MALDI-TOF) spectrometry coupled with affinity capture is particularly suitable for such analysis since apo-cytochrome c and holo cytochrome c can be distinguished on the basis of their unique molecular weights. […] The molecular weight of the protein is determined by its time of flight to the detector of the SELDI mass spectrometer. […]
Cytochrome c antibody was covalently bound to solid support chips containing a pre-activated surface (ProteinChip, Ciphergen, Palo Alto, Calif.). […] After removal of the Tris-saline buffer, the chip was rinsed with 1× PBS and was ready for capture of the antigen. […]

| SMILES | Δ Cell Viability [1] [%] | % Non-Viable Cells with Thapsigargin and with Cmpd. [1] [%] | also measured |
| --- | --- | --- | --- |
| N=C(N)Nc1ccc(N2CCOCC2)cc1 [(27)] | 7.9 | 42.5 |  |
| N=C(N)NC(=N)Nc1ccc(C(=O)O)cc1 [(34)] | 2.9 | 42.4 |  |
| CCCCCCCCc1ccc(O)c(NC(=N)N)c1 [Compound (6)] |  |  | cytotoxicity at 100 µM [1]: 122%; Δ Cell Viability ([2]; no thapsigargin, [% Non-Viable Cells (without Cmpd)] − [% Non-Viable Cells (with Cmpd)]): −109.0%; % Non-Viable Cells with Cmpd. ([2]; no thapsigargin, agent alone 100 μM, 24 hours): 125.2% |
| CCCCCCOc1ccc(NC(=N)N)cc1 [(16)] |  | 121.2 | Δ Cell Viability [2]: −106.7% |
| COc1cc(C(=O)O)ccc1NC(=N)N [(12)] | 1.8 | 37.5 |  |
| N=C(N)Nc1ccc(F)cc1 [(17)] |  | 56.9 | Δ Cell Viability [2]: −23.6% |
| N=C(N)Nc1ccc(O)c(C(=O)O)c1 [(23)] | 0.6 | 49.8 |  |
| CN(CC(=O)O)C(=N)N [Creatine] |  |  | IC50 [3]: 2000 µM; proportion of cells undergoing apoptosis as evidenced by membrane blebbing [4]: approximately 10% |
| N=C(N)Nc1cc(F)cc(F)c1 [(15)] |  | 42.2 |  |
| N=C(N)NC(=N)Nc1ccccc1 [(1 1)] |  |  | cytochrome c release [5]: attenuation of cytochrome release |
| CC(C)(C)c1cc(CNNC(=N)N)cc(C(C)(C)C)c1O [Compound (1)] | 3.2 |  | ΔCell Viability ([1]; (+thapsigargin, −compound)—(+thapsigargin, +compound), approximate values): about 3.5; cytotoxicity at 100 µM [1]: 38.3% |
| N=C(N)NCCc1ccc(O)c(O)c1 [(28)] |  | 52.3 |  |
| N=C(N)Nc1ccccc1CO [(19)] |  | 44.3 |  |
| N=C(N)Nc1cc(C(F)(F)F)cc(C(F)(F)F)c1 [(14)] |  | 47.9 |  |
| COc1cc(NC(=N)N)cc(OC)c1OC [(3)] |  | 46.7 |  |
| CCCCCCCCc1ccc(NC(=N)N)cc1 [Compound (31)] |  | 100.0 | Δ Cell Viability [2]: −83.5% |
| COc1cc(NC(=N)N)c(Cl)cc1C(=O)O [(13)] |  | 52.8 | Δ Cell Viability [2]: −22.2% |
| NC1=NCCN1CC(=O)O [Cyclocreatine] |  |  | IC50 [3]: 3000 µM |
| N=C(N)Nc1ccc(C(=O)O)cc1 [4-Guanidinobenzoic Acid] |  |  | IC50 [3]: 1000 µM |
| CN(Cc1cc(C(C)(C)C)c(O)c(C(C)(C)C)c1)NC(=N)N [Compound (4)] | 2.1 |  | cytotoxicity at 100 µM [1]: 43.8%; IC50 [3]: 10 µM |
